According to ChEMBL document CHEMBL1201862, “PubChem BioAssay data set” (2004):
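Tested at 5 concentrations; 48 h exposure; 96-well plates; endpoints linearly interpolated, else capped at highest concentration. Here, GI50 denotes the concentration required for 50% inhibition of growth.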 The source made the active and inactive calls. Rule as the data show it: active = GI50 up to about 1.1 µM and inactive = higher.

Key:
Assay in all cases: NCI-60 cell line screen, 48 h
EKVX = tested on: EKVX
SNB-75 = tested on: SNB-75
MDA-N = tested on: MDA-N
SF-295 = tested on: SF-295
COLO 205 = tested on: COLO 205
HCT-116 = tested on: HCT-116
K562 = tested on: K562
OVCAR-3 = tested on: OVCAR-3
SK-MEL-28 = tested on: SK-MEL-28
TK-10 = tested on: TK-10
T47D = tested on: T47D
SR = tested on: SR
HOP-92 = tested on: HOP-92
SW-620 = tested on: SW-620
NCI/ADR-RES = tested on: NCI/ADR-RES
CCRF-CEM = tested on: CCRF-CEM
PC-3 = tested on: PC-3
NCI-H23 = tested on: NCI-H23
786-0 = tested on: 786-0
SF-539 = tested on: SF-539
MCF7 = tested on: MCF7
MDA-MB-231 = tested on: MDA-MB-231
UACC-257 = tested on: UACC-257
SN12C = tested on: SN12C
IGROV-1 = tested on: IGROV-1
HL-60 = tested on: HL-60
CAKI-1 = tested on: CAKI-1
BT-549 = tested on: BT-549
HOP-62 = tested on: HOP-62
MDA-MB-435 = tested on: MDA-MB-435
NCI-H522 = tested on: NCI-H522
LOX IMVI = tested on: LOX IMVI
HT-29 = tested on: HT-29
SK-MEL-2 = tested on: SK-MEL-2
A549 = tested on: A549
KM12 = tested on: KM12
OVCAR-4 = tested on: OVCAR-4
U-251 = tested on: U-251
NCI-H226 = tested on: NCI-H226
HCC 2998 = tested on: HCC 2998
SK-OV-3 = tested on: SK-OV-3
UO-31 = tested on: UO-31
Malme-3M = tested on: Malme-3M
OVCAR-5 = tested on: OVCAR-5
M14 = tested on: M14
ACHN = tested on: ACHN
RPMI-8226 = tested on: RPMI-8226
UACC-62 = tested on: UACC-62
MOLT-4 = tested on: MOLT-4
SNB-19 = tested on: SNB-19
HCT-15 = tested on: HCT-15
OVCAR-8 = tested on: OVCAR-8
SK-MEL-5 = tested on: SK-MEL-5
A498 = tested on: A498

Q: What does the source list for `COc1ccccc1NCc1cccc2c(=O)c3ccc(Cl)cc3oc12`?
A: GI50 (EKVX): > 100 µM (inactive); GI50 (SNB-75): 28 µM (inactive); GI50 (MDA-N): 93.8 µM (inactive); GI50 (SF-295): > 100 µM (inactive); GI50 (COLO 205): 56.9 µM (inactive); GI50 (HCT-116): > 100 µM (inactive); GI50 (K562): 47.1 µM (inactive); GI50 (OVCAR-3): 35.8 µM (inactive); GI50 (SK-MEL-28): > 100 µM (inactive); GI50 (TK-10): > 100 µM (inactive); GI50 (T47D): > 100 µM (inactive); GI50 (SR): 83.4 µM (inactive); GI50 (HOP-92): 25.7 µM (inactive); GI50 (SW-620): 76.9 µM (inactive); GI50 (NCI/ADR-RES): > 100 µM (inactive); GI50 (CCRF-CEM): 48 µM (inactive); GI50 (PC-3): 58.7 µM (inactive); GI50 (NCI-H23): 59.3 µM (inactive); GI50 (786-0): > 100 µM (inactive); GI50 (SF-539): 65.2 µM (inactive); GI50 (MCF7): 28.1 µM (inactive); GI50 (MDA-MB-231): > 100 µM (inactive); GI50 (UACC-257): 60.5 µM (inactive); GI50 (SN12C): > 100 µM (inactive); GI50 (IGROV-1): 56 µM (inactive); GI50 (HL-60): 22.9 µM (inactive); GI50 (CAKI-1): > 100 µM (inactive); GI50 (BT-549): > 100 µM (inactive); GI50 (HOP-62): > 100 µM (inactive); GI50 (MDA-MB-435): 65 µM (inactive); GI50 (NCI-H522): > 100 µM (inactive); GI50 (LOX IMVI): > 100 µM (inactive); GI50 (HT-29): 46.6 µM (inactive); GI50 (SK-MEL-2): 49.1 µM (inactive); GI50 (A549): 78.3 µM (inactive); GI50 (KM12): 40.1 µM (inactive); GI50 (OVCAR-4): > 100 µM (inactive); GI50 (U-251): 33.5 µM (inactive); GI50 (NCI-H226): > 100 µM (inactive); GI50 (HCC 2998): > 100 µM (inactive); GI50 (SK-OV-3): > 100 µM (inactive); GI50 (UO-31): 95.9 µM (inactive); GI50 (Malme-3M): 34.7 µM (inactive); GI50 (OVCAR-5): > 100 µM (inactive); GI50 (M14): > 100 µM (inactive); GI50 (ACHN): > 100 µM (inactive); GI50 (RPMI-8226): 39.3 µM (inactive); GI50 (UACC-62): > 100 µM (inactive); GI50 (MOLT-4): > 100 µM (inactive); GI50 (SNB-19): 92.7 µM (inactive); GI50 (HCT-15): > 100 µM; GI50 (OVCAR-8): > 100 µM (inactive); GI50 (SK-MEL-5): > 100 µM (inactive); GI50 (A498): > 100 µM (inactive)
